Experimental data from patent publication US20250115597A1, “TYK2 INHIBITORS AND COMPOSITIONS AND METHODS THEREOF” (LYNK PHARMACEUTICALS CO. LTD., priority 2021, published 2025).

target: T1, Ba/F3-FL-TYK2-P760L cells (Homo sapiens, UniProt P29597, P760L, cells depend on it); assay: Anti-proliferative assay, Ba/F3-FL-TYK2-P760L cells (Cell-Titer Glo); assay type: cell-based; settings: 72 h, read-out: BaF3-FL-T2P760L IC50
T1 construct: BaF3-FL-T2P760L (nM)
Description: Anti-Proliferative Assay Dimerization domain of Tel protein fused with JAK kinase domain was permanently transduced into Ba/F3 cells, whose proliferation is dependent on JAK activity in the absence of IL-3 induction. These engineered Ba/F3 cells (Ba/F3-FL-TYK2-[…], Ba/F3-TEL-TYK2 and Ba/F3-TEL-JAK2) were used to monitor JAK inhibitory activities of the compounds in the cellular. […] Cells were seeded at 2000/well of white flat bottom 96-well plates. The well containing medium only was used as background control. After 24 h growth, cells were treated with compounds. The test compounds were dissolved in DMSO to a stock concentration of 20 mM. 3-fold serially diluted compounds for 9 concentrations with top concentration of 20 μM was added into the each well. […] The cells continued to grow at 37° C. in 5% CO2 for 72 h after compound treatment. The viability was measured by cellular ATP determination using the Cell-Titer Glo luciferase reagent (Promega). The Luminescence value was recorded by a multi-label reader Envision (PerkinElmer).

T1 sequence (P29597 whole entry P760L): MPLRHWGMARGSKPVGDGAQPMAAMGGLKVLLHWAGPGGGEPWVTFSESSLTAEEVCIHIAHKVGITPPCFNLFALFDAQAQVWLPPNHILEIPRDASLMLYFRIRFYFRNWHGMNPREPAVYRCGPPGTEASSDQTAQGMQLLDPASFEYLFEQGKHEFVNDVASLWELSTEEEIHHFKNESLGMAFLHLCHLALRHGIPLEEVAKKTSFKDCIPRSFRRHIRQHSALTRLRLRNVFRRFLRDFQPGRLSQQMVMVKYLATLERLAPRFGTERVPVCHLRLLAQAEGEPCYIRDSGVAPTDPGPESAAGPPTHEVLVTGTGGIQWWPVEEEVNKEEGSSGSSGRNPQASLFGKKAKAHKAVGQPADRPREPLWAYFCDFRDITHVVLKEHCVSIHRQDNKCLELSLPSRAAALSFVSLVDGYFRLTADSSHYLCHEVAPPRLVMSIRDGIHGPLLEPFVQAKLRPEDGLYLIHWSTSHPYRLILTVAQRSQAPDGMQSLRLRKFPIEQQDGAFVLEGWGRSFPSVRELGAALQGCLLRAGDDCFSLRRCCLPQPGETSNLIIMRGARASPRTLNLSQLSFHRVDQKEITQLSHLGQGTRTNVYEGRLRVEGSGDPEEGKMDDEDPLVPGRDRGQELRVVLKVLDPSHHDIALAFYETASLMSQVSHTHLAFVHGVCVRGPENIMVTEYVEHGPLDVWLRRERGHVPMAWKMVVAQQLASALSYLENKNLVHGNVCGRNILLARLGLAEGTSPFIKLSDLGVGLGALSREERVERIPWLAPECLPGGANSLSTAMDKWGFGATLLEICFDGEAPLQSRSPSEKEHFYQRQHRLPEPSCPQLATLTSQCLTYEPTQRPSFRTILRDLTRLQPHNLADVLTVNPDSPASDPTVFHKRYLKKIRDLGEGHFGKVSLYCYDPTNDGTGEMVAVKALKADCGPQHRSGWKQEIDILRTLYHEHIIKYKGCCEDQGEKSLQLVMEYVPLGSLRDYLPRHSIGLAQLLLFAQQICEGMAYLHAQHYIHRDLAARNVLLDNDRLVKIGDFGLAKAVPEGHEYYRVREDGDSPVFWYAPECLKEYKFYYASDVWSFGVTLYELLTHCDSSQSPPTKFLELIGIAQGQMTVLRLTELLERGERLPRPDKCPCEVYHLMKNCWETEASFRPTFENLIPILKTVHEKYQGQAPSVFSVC

| Compound | GI50 [nM] |
| --- | --- |
| [2H]C([2H])([2H])NC(=O)c1cnc(NC(=O)[C@@H]2C[C@@H]2F)cc1Nc1cn(C)c2ccn(CC)c(=O)c12 [Example 102, 4-[(5-Ethyl-1-methyl-4-oxo-pyrrolo[3,2-c]pyridin-3-yl)amino]-6-[[(1S,2S)-2-fluorocyclopropanecarbonyl]amino]-N-(methyl-d3)pyridine-3-carboxamide] | 807 |
| [2H]C([2H])([2H])NC(=O)c1cnc(NC(=O)[C@@H]2C[C@H]2F)cc1Nc1cn(C)c2ccn(CC)c(=O)c12 [Example 103, 4-[(5-Ethyl-1-methyl-4-oxo-pyrrolo[3,2-c]pyridin-3-yl)amino]-6-[[(1S,2R)-2-fluorocyclopropanecarbonyl]amino]-N-(methyl-d3)pyridine-3-carboxamide] | 761 |
| [2H]C([2H])([2H])NC(=O)c1cnc(NC(=O)C2(C(F)(F)F)CC2)cc1Nc1cn(C)c2ccn(CC)c(=O)c12 [Example 104, 4-[(5-Ethyl-1-methyl-4-oxo-pyrrolo[3,2-c]pyridin-3-yl)amino]-N-(methyl-d3)-6-[[1-(trifluoromethyl)cyclopropanecarbonyl]amino]pyridine-3-carboxamide] | 2420 |
| [2H]C([2H])([2H])NC(=O)c1cnc(NC(=O)C2CC2)cc1Nc1cn(C)c2ccn(CC3CC3)c(=O)c12 [Example 106, 6-(Cyclopropanecarboxamido)-4-((5-(cyclopropylmethyl)-1-methyl-4-oxo-4,5-dihydro-1H-pyrrolo[3,2-c]pyridin-3-yl)amino)-N-(methyl-d3)nicotinamide] | 206 |
| [2H]C([2H])([2H])NC(=O)c1cnc(NC(=O)C2CC2)cc1Nc1nn(C)c2ccn(CC3CC3(F)F)c(=O)c12 (stereo not shown) [Example 107, 6-(Cyclopropanecarboxamido)-4-((5-((2,2-difluorocyclopropyl)methyl)-1-methyl-4-oxo-4,5-dihydro-1H-pyrazolo[4,3-c]pyridin-3-yl)amino)-N-(methyl-d3)nicotinamide] | 2100 |
| [2H]C([2H])([2H])NC(=O)c1cnc(NC(=O)C2CC2)cc1Nc1cn(C)c2ccn(C3CC3)c(=O)c12 [Example 108, 6-(Cyclopropanecarboxamido)-4-((5-cyclopropyl-1-methyl-4-oxo-4,5-dihydro-1H-pyrrolo[3,2-c]pyridin-3-yl)amino)-N-(methyl-d3)nicotinamide] | 523 |
| [2H]C([2H])([2H])NC(=O)c1cnc(NC(=O)C2CC2)cc1Nc1cn(C)c2ccn(CC=C)c(=O)c12 [Example 109, 4-((5-Allyl-1-methyl-4-oxo-4,5-dihydro-1H-pyrrolo[3,2-c]pyridin-3-yl)amino)-6-(cyclopropanecarboxamido)-N-(methyl-d3)nicotinamide] | 147 |
| [2H]C([2H])([2H])NC(=O)c1cnc(NC(=O)C2CC2)cc1Nc1cn(C)c2ccn(C3CCC3)c(=O)c12 [Example 111, 4-((5-Cyclobutyl-1-methyl-4-oxo-4,5-dihydro-1H-pyrrolo[3,2-c]pyridin-3-yl)amino)-6-(cyclopropanecarboxamido)-N-(methyl-d3)nicotinamide] | 154 |
| [2H]C([2H])([2H])NC(=O)c1cnc(NC(=O)C2CC2)cc1Nc1cn(C)c2ccn(CCOC)c(=O)c12 [Example 112, 6-(Cyclopropanecarboxamido)-4-((5-(2-methoxyethyl)-1-methyl-4-oxo-4,5-dihydro-1H-pyrrolo[3,2-c]pyridin-3-yl)amino)-N-(methyl-d3)nicotinamide] | 477 |
| [2H]C([2H])([2H])NC(=O)c1cnc(NC(=O)C2CC2)cc1Nc1cn(C)c2ccn([C@@H]3CCOC3)c(=O)c12 [Example 114, (R)-6-(cyclopropanecarboxamido)-N-(methyl-d3)-4-((1-methyl-4-oxo-5-(tetrahydrofuran-3-yl)-4,5-dihydro-1H-pyrrolo[3,2-c]pyridin-3-yl)amino)nicotinamide] | 1100 |
